Experiments:
[1] = test system: Chenopodium album; test: Upland field foliage treatment (Test Example 1); format: in vivo; details: foliage treatment 14th day after sowing, wettable powder, 1 kg active ingredient per hectare, evaluated 21st day after application
Source text: (§1) In the above evaluation criteria, the term “herbicidal effect” means evaluation to the objective weeds, and a higher index of the evaluation criteria means higher herbicidal effect on the objective weeds. On the other hand, a lower index of the evaluation criteria for the crops means higher safety to the crops. A plastic pot of 130 cm^2 was filled with upland soil. Then, seeds of weeds, namely, Setaria viridis, Digitaria adscendens, Chenopodium album and Stellaria media, and seeds of crops, namely, soybean (Glycine max) and wheat (Triticum aestivum), were sowed and covered with soil of about 1 cm thick. On the 14th day after the sowing, a wettable powder composition was prepared in accordance with Formulation Example 1, diluted with water in such an amount that the amount of the active ingredient became 1 kg per hectare, and then uniformly applied to the plant leaf surfaces. On the 21st day after the application, observation and evaluation were carried out according to the aforesaid criteria.

[2] = test system: Digitaria adscendens; test: Upland field foliage treatment (Test Example 1); format: in vivo; details: foliage treatment 14th day after sowing, wettable powder, 1 kg active ingredient per hectare, evaluated 21st day after application
Source text: as §1

[3] = test system: Setaria viridis; test: Upland field foliage treatment (Test Example 1); format: in vivo; details: foliage treatment 14th day after sowing, wettable powder, 1 kg active ingredient per hectare, evaluated 21st day after application
Source text: as §1

[4] = test system: Stellaria media; test: Upland field foliage treatment (Test Example 1); format: in vivo; details: foliage treatment 14th day after sowing, wettable powder, 1 kg active ingredient per hectare, evaluated 21st day after application
Source text: as §1

[5] = test system: soybean (Glycine max); test: Upland field foliage treatment (Test Example 1), crop; format: in vivo; details: foliage treatment 14th day after sowing, 1 kg active ingredient per hectare, evaluated 21st day, lower index = higher safety
Source text: as §1

[6] = test system: wheat (Triticum aestivum); test: as above; format: in vivo; details: foliage treatment 14th day after sowing, 1 kg active ingredient per hectare, evaluated 21st day, lower index = higher safety
Source text: as §1

[7] = test system: Chenopodium album; test: Upland soil treatment (Test Example 2); format: in vivo; details: soil surface treatment next day after sowing, wettable powder, 1 kg active ingredient per hectare, evaluated 21st day after application
Source text: (§2) In the above evaluation criteria, the term “herbicidal effect” means evaluation to the objective weeds, and a higher index of the evaluation criteria means higher herbicidal effect on the objective weeds. On the other hand, a lower index of the evaluation criteria for the crops means higher safety to the crops. A plastic pot of 130 cm^2 was filled with upland soil. Then, seeds of weeds, namely, Setaria viridis, Digitaria adscendens, Chenopodium album and Stellaria media, and seeds of crops, namely, soybean (Glycine max) and wheat (Triticum aestivum), were sowed and covered with soil of about 1 cm thick. On the next day after the sowing, a wettable powder composition was prepared in accordance with Formulation Example 1, diluted with water in such an amount that the amount of the active ingredient became 1 kg per hectare, and then uniformly applied to the soil surface. On the 21st day after the application, observation and evaluation were carried out according to the aforesaid criteria.

[8] = test system: Digitaria adscendens; test: Upland soil treatment (Test Example 2); format: in vivo; details: soil surface treatment next day after sowing, wettable powder, 1 kg active ingredient per hectare, evaluated 21st day after application
Source text: as §2

[9] = test system: Setaria viridis; test: Upland soil treatment (Test Example 2); format: in vivo; details: soil surface treatment next day after sowing, wettable powder, 1 kg active ingredient per hectare, evaluated 21st day after application
Source text: as §2

[10] = test system: Stellaria media; test: Upland soil treatment (Test Example 2); format: in vivo; details: soil surface treatment next day after sowing, wettable powder, 1 kg active ingredient per hectare, evaluated 21st day after application
Source text: as §2

[11] = test system: soybean (Glycine max); test: Upland soil treatment (Test Example 2), crop; format: in vivo; details: soil surface treatment next day after sowing, 1 kg active ingredient per hectare, evaluated 21st day, lower index = higher safety
Source text: as §2

[12] = test system: wheat (Triticum aestivum); test: Upland soil treatment (Test Example 2), crop; format: in vivo; details: soil surface treatment next day after sowing, 1 kg active ingredient per hectare, evaluated 21st day, lower index = higher safety
Source text: as §2

[13] = test system: Echinochloa spp.; test: Paddy field treatment (Test Example 3); format: in vivo, Echinochloa crusgalli; details: paddy pot, submerged 4 cm, dropped on water surface 10th day after transplantation, 1 kg active ingredient per hectare, evaluated 21st day
Experimental: (§3) In the above evaluation criteria, the term “herbicidal effect” means evaluation to the objective weeds, and a higher index of the evaluation criteria means higher herbicidal effect on the objective weeds. On the other hand, a lower index of the evaluation criteria for the crops means higher safety to the crops. A plastic pot of 130 cm^2 was filled with paddy soil, and soil puddling was carried out to adjust the submerged depth to 4 cm. Then, seeds of Echinochloa crusgalli, Monochoria vaginalis, Ammannia multiflora and Scirpus juncoides were sowed, and rice (Oryza […], variety: Koshihikari) of two-leaf period was transplanted by 2 rice plants of 1 stub per pot at a depth of 3 cm. On the 10th day after the transplantation, a wettable powder composition was prepared in accordance with Formulation Example 1, diluted with water in such an amount that the amount of the active ingredient became 1 kg per hectare, and then dropped to diffuse on the water surface. On the 21st day after the dropping, observation and evaluation were carried out according to the aforesaid criteria.

[14] = test system: Ammannia multiflora; test: Paddy field treatment (Test Example 3); format: in vivo; details: paddy pot, submerged 4 cm, dropped on water surface 10th day after transplantation, 1 kg active ingredient per hectare, evaluated 21st day
Experimental: as §3

[15] = test system: Monochoria vaginalis; test: Paddy field treatment (Test Example 3); format: in vivo; details: paddy pot, submerged 4 cm, dropped on water surface 10th day after transplantation, 1 kg active ingredient per hectare, evaluated 21st day
Experimental: as §3

[16] = test system: Scirpus juncoides; test: Paddy field treatment (Test Example 3); format: in vivo; details: paddy pot, submerged 4 cm, dropped on water surface 10th day after transplantation, 1 kg active ingredient per hectare, evaluated 21st day
Experimental: as §3

[17] = test system: rice (Oryza sative, variety: Koshihikari); test: Paddy field treatment (Test Example 3), crop; format: in vivo, Oryza sativa; details: transplanted rice two-leaf period, water surface treatment 10th day after transplantation, 1 kg active ingredient per hectare, evaluated 21st day, lower index = higher safety
Experimental: as §3

SMILES | Herbicidal activity Chenopodium album [1] | Herbicidal activity Digitaria adscendens [2] | Herbicidal activity Setaria viridis [3] | Herbicidal activity Stellaria media [4] | Herbicidal activity Glycine max [5] | Herbicidal activity Triticum aestivum [6] | Herbicidal activity Chenopodium album [7] | Herbicidal activity Digitaria adscendens [8] | Herbicidal activity Setaria viridis [9] | Herbicidal activity Stellaria media [10] | Herbicidal activity Glycine max [11] | Herbicidal activity Triticum aestivum [12] | Herbicidal activity Echinochloa spp. [13] | Herbicidal activity Ammannia multiflora [14] | Herbicidal activity Monochoria vaginalis [15] | Herbicidal activity Scirpus juncoides [16] | Herbicidal activity Oryza sativa [17]
COC=C(Cn1nc(-c2ccc(Cl)c(Cl)c2)cc1C)C(=O)OC [Compound 10] | 4 (herbicidal effect of not less than 70% by weight and less than 90% by weight) | 4 (herbicidal effect of not less than 70% by weight and less than 90% by weight) | 4 (herbicidal effect of not less than 70% by weight and less than 90% by weight) | 4 (herbicidal effect of not less than 70% by weight and less than 90% by weight) | 0 (herbicidal effect of not less than 0% by weight and less than 10% by weight) | 0 (herbicidal effect of not less than 0% by weight and less than 10% by weight) | 4 (herbicidal effect of not less than 70% by weight and less than 90% by weight) | 5 (herbicidal effect of not less than 90% by weight) | 4 (herbicidal effect of not less than 70% by weight and less than 90% by weight) | 4 (herbicidal effect of not less than 70% by weight and less than 90% by weight) | 0 (herbicidal effect of not less than 0% by weight and less than 10% by weight) | 0 (herbicidal effect of not less than 0% by weight and less than 10% by weight) | 3 (herbicidal effect of not less than 50% by weight and less than 70% by weight) | 3 (herbicidal effect of not less than 50% by weight and less than 70% by weight) | 3 (herbicidal effect of not less than 50% by weight and less than 70% by weight) | 3 (herbicidal effect of not less than 50% by weight and less than 70% by weight) | 0 (herbicidal effect of not less than 0% by weight and less than 10% by weight)
CCCc1c(Cl)c(-c2cccc(Cl)c2)nn1CC(=COC)C(=O)OC [Compound 40] | 4 (herbicidal effect of not less than 70% by weight and less than 90% by weight) | 4 (herbicidal effect of not less than 70% by weight and less than 90% by weight) | 4 (herbicidal effect of not less than 70% by weight and less than 90% by weight) | 4 (herbicidal effect of not less than 70% by weight and less than 90% by weight) | 0 (herbicidal effect of not less than 0% by weight and less than 10% by weight) | 0 (herbicidal effect of not less than 0% by weight and less than 10% by weight) | 4 (herbicidal effect of not less than 70% by weight and less than 90% by weight) | 4 (herbicidal effect of not less than 70% by weight and less than 90% by weight) | 4 (herbicidal effect of not less than 70% by weight and less than 90% by weight) | 4 (herbicidal effect of not less than 70% by weight and less than 90% by weight) | 0 (herbicidal effect of not less than 0% by weight and less than 10% by weight) | 0 (herbicidal effect of not less than 0% by weight and less than 10% by weight) | 3 (herbicidal effect of not less than 50% by weight and less than 70% by weight) | 3 (herbicidal effect of not less than 50% by weight and less than 70% by weight) | 3 (herbicidal effect of not less than 50% by weight and less than 70% by weight) | 3 (herbicidal effect of not less than 50% by weight and less than 70% by weight) | 0 (herbicidal effect of not less than 0% by weight and less than 10% by weight)
COC=C(Cn1nc(-c2cc(C)ccc2C)cc1C)C(=O)OC [Compound 5] | 5 (herbicidal effect of not less than 90% by weight) | 4 (herbicidal effect of not less than 70% by weight and less than 90% by weight) | 4 (herbicidal effect of not less than 70% by weight and less than 90% by weight) | 4 (herbicidal effect of not less than 70% by weight and less than 90% by weight) | 0 (herbicidal effect of not less than 0% by weight and less than 10% by weight) | 0 (herbicidal effect of not less than 0% by weight and less than 10% by weight) | 4 (herbicidal effect of not less than 70% by weight and less than 90% by weight) | 5 (herbicidal effect of not less than 90% by weight) | 4 (herbicidal effect of not less than 70% by weight and less than 90% by weight) | 4 (herbicidal effect of not less than 70% by weight and less than 90% by weight) | 0 (herbicidal effect of not less than 0% by weight and less than 10% by weight) | 0 (herbicidal effect of not less than 0% by weight and less than 10% by weight) | – | 3 (herbicidal effect of not less than 50% by weight and less than 70% by weight) | 5 (herbicidal effect of not less than 90% by weight) | 3 (herbicidal effect of not less than 50% by weight and less than 70% by weight) | 0 (herbicidal effect of not less than 0% by weight and less than 10% by weight)

Reference: patent US6809065B2, “Herbicide containing substituted pyrazole derivative as active ingredient” (SDS Biotech K.K., priority 2001, dated 2004)
